# Data reported in patent publication US20220380368A1, “SPIROCYCLIC ANDROGEN RECEPTOR PROTEIN DEGRADERS” (THE REGENTS OF THE UNIVERSITY OF MICHIGAN, priority 2019, published 2022).
# Target: T1, AR protein (Homo sapiens, UniProt P10275)
# T1 construct: endogenous in cells; host or cells: VCaP
# T1 sequence (P10275 1-920): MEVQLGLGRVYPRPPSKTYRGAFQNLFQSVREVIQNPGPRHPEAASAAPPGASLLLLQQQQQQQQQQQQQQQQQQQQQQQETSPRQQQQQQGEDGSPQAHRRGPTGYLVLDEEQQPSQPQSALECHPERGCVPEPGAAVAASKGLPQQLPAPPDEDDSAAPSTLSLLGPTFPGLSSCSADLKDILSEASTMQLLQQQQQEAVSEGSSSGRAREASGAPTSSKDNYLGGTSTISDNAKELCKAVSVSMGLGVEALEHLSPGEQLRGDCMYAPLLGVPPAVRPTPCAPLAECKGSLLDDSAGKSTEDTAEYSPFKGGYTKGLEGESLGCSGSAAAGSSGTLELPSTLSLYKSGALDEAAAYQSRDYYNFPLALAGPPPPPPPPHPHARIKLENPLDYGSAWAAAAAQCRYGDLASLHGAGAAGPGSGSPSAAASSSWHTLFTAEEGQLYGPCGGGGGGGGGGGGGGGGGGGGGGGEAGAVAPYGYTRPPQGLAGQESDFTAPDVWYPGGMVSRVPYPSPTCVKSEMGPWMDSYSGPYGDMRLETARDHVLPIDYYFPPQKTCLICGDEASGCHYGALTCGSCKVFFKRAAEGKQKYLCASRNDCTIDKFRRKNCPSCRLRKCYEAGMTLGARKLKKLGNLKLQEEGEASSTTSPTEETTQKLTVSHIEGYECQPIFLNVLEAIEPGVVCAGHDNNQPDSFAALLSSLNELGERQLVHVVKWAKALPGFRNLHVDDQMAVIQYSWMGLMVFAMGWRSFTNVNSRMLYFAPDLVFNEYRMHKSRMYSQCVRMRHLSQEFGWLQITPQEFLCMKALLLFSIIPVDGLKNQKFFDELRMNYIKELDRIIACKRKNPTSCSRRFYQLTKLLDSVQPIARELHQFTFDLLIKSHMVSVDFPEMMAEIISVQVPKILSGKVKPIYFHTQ
# Assay: Western blotting analysis of AR protein levels in VCaP cells, band quantification, DC50/DC90
# Format: cell-based
# Conditions: VCaP cells, Table 6; read-out: VCaP DC50
# Procedure: The appropriate cell line, e.g., prostate cancer LNCaP, Vcap, or 22RV1 cell line, was treated with Compounds of the Disclosure as indicated. The treated cells were lysed with RIPA buffer. […] GAPDH was used as a loading control.
# Bands were quantified with ImageJ software. The relative numbers of each band obtained from normalization with its corresponding GAPDH level were compared with Prism 8 software. The DC50 values were produced from Prism 8, and the DC90 values were calculated with an equation=Bottom+(Top−Bottom)/(1+10^((Log EC50−X)*HillSlope) based on DC50 and Hillslope values.
row,Compound,DC50 [nM]
1,"C[C@H]1CC2(CCN(c3ccc(C(=O)N4CCN(C5CCN(c6ccc7c(c6)C(=O)N(C6CCC(=O)NC6=O)C7=O)CC5)CC4)cn3)CC2)CN1c1ccc(C#N)c(Cl)c1 (stereo partly drawn) [Cpd. No. 508, 2-chloro-4-((3S)-8-(5-(4-(1-(2-(2,6-dioxopiperidin-3-yl)-1,3-dioxoisoindolin-5-yl)piperidin-4-yl)piperazine-1-carbonyl)pyridin-2-yl)-3-methyl-2,8-diazaspiro[4.5]decan-2-yl)benzonitrile]",< 1
2,"C[C@H]1CC2(CCN(c3ccc(C(=O)N4CCN(CC5CN(c6ccc7c(c6)C(=O)N(C6CCC(=O)NC6=O)C7=O)C5)CC4)cc3)CC2)CN1c1ccc(C#N)c(Cl)c1 (stereo partly drawn) [Cpd. No. 535, 2-chloro-4-((3S)-8-(4-(4-((1-(2-(2,6-dioxopiperidin-3-yl)-1,3-dioxoisoindolin-5-yl)azetidin-3-yl)methyl)piperazine-1-carbonyl)phenyl)-3-methyl-2,8-diazaspiro[4.5]decan-2-yl)benzonitrile]",< 1
3,"C[C@H]1CC2(CCN(c3ccc(C(=O)N4CCN(C5CN(c6cc7c(cc6F)C(=O)N(C6CCC(=O)NC6=O)C7=O)C5)CC4)cn3)CC2)CN1c1ccc(C#N)c(Cl)c1 (stereo partly drawn) [Cpd. No. 504, 2-chloro-4-((3S)-8-(5-(4-(1-(2-(2,6-dioxopiperidin-3-yl)-6-fluoro-1,3-dioxoisoindolin-5-yl)azetidin-3-yl)piperazine-1-carbonyl)pyridin-2-yl)-3-methyl-2,8-diazaspiro[4.5]decan-2-yl)benzonitrile]",< 1
4,"C[C@H]1CC2(CCN(c3ccc(C(=O)N4CCN(C5CN(c6cc7c(cc6F)C(=O)N(C6CCC(=O)NC6=O)C7=O)C5)CC4)nn3)CC2)CN1c1ccc(C#N)c(Cl)c1 (stereo partly drawn) [Cpd. No. 501, 2-chloro-4-((3S)-8-(6-(4-(1-(2-(2,6-dioxopiperidin-3-yl)-6-fluoro-1,3-dioxoisoindolin-5-yl)azetidin-3-yl)piperazine-1-carbonyl)pyridazin-3-yl)-3-methyl-2,8-diazaspiro[4.5]decan-2-yl)benzonitrile]",< 1
5,"C[C@H]1CC2(CCN(c3ncc(C(=O)N4CCC(CN5Cc6cc7c(cc6C5)C(=O)N(C5CCC(=O)NC5=O)C7=O)CC4)cn3)CC2)CN1c1ccc(C#N)c(Cl)c1 (stereo partly drawn) [Cpd. No. 526, 2-chloro-4-((3S)-8-(5-(4-((6-(2,6-dioxopiperidin-3-yl)-5,7-dioxo-3,5,6,7-tetrahydropyrrolo[3,4-f]isoindol-2(1H)-yl)methyl)piperidine-1-carbonyl)pyrimidin-2-yl)-3-methyl-2,8-diazaspiro[4.5]decan-2-yl)benzonitrile]",< 1
6,"C[C@H]1CC2(CCN(c3ccc(C(=O)N4CC(N5CCN(c6cc7c(cc6F)C(=O)N(C6CCC(=O)NC6=O)C7=O)CC5)C4)nn3)CC2)CN1c1ccc(C#N)c(Cl)c1 (stereo partly drawn) [Cpd. No. 537, 2-chloro-4-((3S)-8-(6-(3-(4-(2-(2,6-dioxopiperidin-3-yl)-6-fluoro-1,3-dioxoisoindolin-5-yl)piperazin-1-yl)azetidine-1-carbonyl)pyridazin-3-yl)-3-methyl-2,8-diazaspiro[4.5]decan-2-yl)benzonitrile]",1 to 10
7,"C[C@H]1CC2(CCN(c3ccc(C(=O)N4CCN(C5CN(c6cc7c(cc6F)C(=O)N(C6CCC(=O)NC6=O)C7=O)C5)CC4)c(F)c3)CC2)CN1c1ccc(C#N)c(Cl)c1 (stereo partly drawn) [Cpd. No. 530, 2-chloro-4-((3S)-8-(4-(4-(1-(2-(2,6-dioxopiperidin-3-yl)-6-fluoro-1,3-dioxoisoindolin-5-yl)azetidin-3-yl)piperazine-1-carbonyl)-3-fluorophenyl)-3-methyl-2,8-diazaspiro[4.5]decan-2-yl)benzonitrile]",< 1
8,"C[C@H]1CC2(CCN(c3ncc(C(=O)N4CCN(C5CN(c6cc7c(cc6F)C(=O)N(C6CCC(=O)NC6=O)C7=O)C5)CC4)cn3)CC2)CN1c1ccc(C#N)c(Cl)c1 (stereo partly drawn) [Cpd. No. 523, 2-chloro-4-((3S)-8-(5-(4-(1-(2-(2,6-dioxopiperidin-3-yl)-6-fluoro-1,3-dioxoisoindolin-5-yl)azetidin-3-yl)piperazine-1-carbonyl)pyrimidin-2-yl)-3-methyl-2,8-diazaspiro[4.5]decan-2-yl)benzonitrile]",< 1
9,"C[C@H]1CC2(CCN(c3ccc(C(=O)N4CCN(C5CN(c6cc7c(cc6F)C(=O)N(C6CCC(=O)NC6=O)C7=O)C5)CC4)cn3)CC2)CN1c1ccc(C#N)c(Cl)c1 (stereo partly drawn) [Cpd. No. 507, 2-chloro-4-((3S)-8-(5-(4-(1-(2-(2,6-dioxopiperidin-3-yl)-6-fluoro-1,3-dioxoisoindolin-5-yl)azetidin-3-yl)piperazine-1-carbonyl)pyridin-2-yl)-3-methyl-2,8-diazaspiro[4.5]decan-2-yl)benzonitrile]",10 to 100
10,"C[C@H]1CC2(CCN(c3ncc(C(=O)N4CCN(C5CCN(c6ccc7c(c6)C(=O)N(C6CCC(=O)NC6=O)C7=O)CC5)CC4)cn3)CC2)CN1c1ccc(C#N)c(Cl)c1 (stereo partly drawn) [Cpd. No. 513, 2-chloro-4-((3S)-8-(5-(4-(1-(2-(2,6-dioxopiperidin-3-yl)-1,3-dioxoisoindolin-5-yl)piperidin-4-yl)piperazine-1-carbonyl)pyrimidin-2-yl)-3-methyl-2,8-diazaspiro[4.5]decan-2-yl)benzonitrile]",< 1
11,"C[C@H]1CC2(CCN(c3ccc(C(=O)N4CCN(C5CCN(c6ccc7c(c6)C(=O)N(C6CCC(=O)NC6=O)C7=O)CC5)CC4)cn3)CC2)CN1c1ccc(C#N)c(Cl)c1 (stereo partly drawn) [Cpd. No. 509, 2-chloro-4-((3S)-8-(5-(4-(1-(2-(2,6-dioxopiperidin-3-yl)-1,3-dioxoisoindolin-5-yl)piperidin-4-yl)piperazine-1-carbonyl)pyridin-2-yl)-3-methyl-2,8-diazaspiro[4.5]decan-2-yl)benzonitrile]",< 1
12,"C[C@H]1CC2(CCN(c3ccc(C(=O)N4CCN(C5CCN(c6ccc7c(c6)C(=O)N(C6CCC(=O)NC6=O)C7=O)CC5)CC4)cc3F)CC2)CN1c1ccc(C#N)c(Cl)c1 (stereo partly drawn) [Cpd. No. 520, 2-chloro-4-((3S)-8-(4-(4-(1-(2-(2,6-dioxopiperidin-3-yl)-1,3-dioxoisoindolin-5-yl)piperidin-4-yl)piperazine-1-carbonyl)-2-fluorophenyl)-3-methyl-2,8-diazaspiro[4.5]decan-2-yl)benzonitrile]",< 1
13,"C[C@H]1CC2(CCN(c3ccc(C(=O)N4CCN(CC5CN(c6cc7c(cc6F)C(=O)N(C6CCC(=O)NC6=O)C7=O)C5)CC4)nn3)CC2)CN1c1ccc(C#N)c(Cl)c1 (stereo partly drawn) [Cpd. No. 503, 2-chloro-4-((3S)-8-(6-(4-((1-(2-(2,6-dioxopiperidin-3-yl)-6-fluoro-1,3-dioxoisoindolin-5-yl)azetidin-3-yl)methyl)piperazine-1-carbonyl)pyridazin-3-yl)-3-methyl-2,8-diazaspiro[4.5]decan-2-yl)benzonitrile]",1 to 10
14,"C[C@H]1CC2(CCN(c3ccc(C(=O)N4CC(N5CCN(c6cc7c(cc6F)C(=O)N(C6CCC(=O)NC6=O)C7=O)CC5)C4)nc3)CC2)CN1c1ccc(C#N)c(Cl)c1 (stereo partly drawn) [Cpd. No. 538, 2-chloro-4-((3S)-8-(6-(3-(4-(2-(2,6-dioxopiperidin-3-yl)-6-fluoro-1,3-dioxoisoindolin-5-yl)piperazin-1-yl)azetidine-1-carbonyl)pyridin-3-yl)-3-methyl-2,8-diazaspiro[4.5]decan-2-yl)benzonitrile]",1 to 10
